Holding throughout (type): cell-based
Test [1] deals with recombinant Escherichia coli strain with an extra-chromosomal plasmid (YEp351). Put plainly: Degradation of genomic DNA and extra-chromosomal genetic material inside microorganisms (FIG. 8, gel electrophoresis). The conditions noted are these: 5 μl E. coli suspension, lysozyme 5 minutes, then 5 μl solution for 5 minutes. The protocol:
A recombinant Escherichia coli strain with an extra-chromosomal plasmid (YEp351) was grown over night in LB, amp medium. Aliquots of 5 μl from the E. coli suspension were treated with 5 μl lysozyme solution (1 mg/ml) for 5 minutes and subsequently incubated with 5 μl of the listed solutions (1-5) for additional 5 minutes. After addition of bromphenol blue the samples were loaded into the gel slots and separated by electrophoresis of the DNA molecules.
(M: Marker 1 Kb Ladder; C: Control with H2O; 1: 70% Ethanol; 2: 0.5% Bacillozid™; 3: 0.5% SDS; 4: 0.5% Na-Azide+0.5% SDS; 5: 100 mM vitamin C+10 mM FeCl3+0.5% SDS; C: Control: 5 μl sterile H2O)

The test system of test [2] is listed microorganisms (Escherichia coli, Bacillus subtilis, Saccharomyces cerevisiae, Candida parapsilosis). The experiment in a line: Test for the anti-microbial action, summary for all listed microorganisms. The conditions noted are these: 10^6 cells mixed 1:1 with solution, 2 minutes incubation, plated, 1-3 days. The protocol:
(§1) Freshly grown cultures of the listed microorganisms were adjusted to a cell number of 10^6 in a 50 μl volume and mixed in a ratio of 1:1 with 50 μl of water, 70% ethanol or the three component system (100 mM ascorbic acid, 10 mM FeCl3 and 0.5% SDS). After an incubation time of 2 minutes the 100 μl samples containing the microorganisms were plated onto the respective growth media. After an incubation period of 1-3 days at 28° C. (Saccharomyces cerevisiae and Candida parapsilosis) or 37° C. (Escherichia coli and Bacillus subtilis) the number of grown colonies was determined.

Another test deals with Bacillus subtilis. The experiment in a line: Test for the anti-microbial action, colony count after plating. The conditions noted are these: 10^6 cells in 50 μl mixed 1:1 with solution, 2 minutes incubation, plated, 1-3 days at 37° C. The protocol:
as §1

The subject of the next test is Saccharomyces cerevisiae. Described as above. Particulars: 10^6 cells in 50 μl mixed 1:1 with solution, 2 minutes incubation, plated, 1-3 days at 28° C. The protocol:
as §1

In a further test the test system is Escherichia coli. The description is as above. Particulars: 10^6 cells in 50 μl mixed 1:1 with solution, 2 minutes incubation, plated, 1-3 days at 37° C. The protocol:
as §1

As to `CCO` [70% ethanol, ethanol], in test [1], the “effect on cells and DNA molecules seen in the gel” value was “precipitation of the lysate and the DNA”. Moreover, the “living cell colonies, all listed microorganisms” value in test [2] is “did not show any living cell colony”. For the same compound, the “number of grown colonies” value in the test on Bacillus subtilis, with Saccharomyces cerevisiae and in the test on Escherichia coli was 0 in each case.

For `CCCCCCCCCCCCOS(=O)(=O)[O-].[Na+]` [sample 3, Sodiumdodecylsulfate], the “effect on cells and DNA molecules seen in the gel” value in test [1] is recorded as “lysis of the cells is observed”.

Source of the values: patent US10980239B2, “Decontamination solution and its use for denaturation, modification, degradation, solubilisation and removal of proteins, nucleic acid molecules and microorganisms” (MULTIBIND BIOTEC GMBH, priority 2005, dated 2021).
